Assay results reported in patent US7067494B2, “Antimitotic eleuthesides” (The University of British Columbia, priority 2001, dated 2006).
pIC50: −log10 of the molar value.

Test system: cells which regularly divide in culture (e.g. cancer cells)
Test: cell based antimitotic (mitotic arrest) assay using antibodies specific for mitotic cells
Settings: for pIC50: cell based mitotic assay
Source text: Methods suitable for assaying antimitotic activity of compounds of this invention or compounds used as precursors, may be based on the use of antibodies specific for mitotic cells, such as those described in the international patent application published Apr. 1, 1999 under WO 99/15157 or the assay described in WO 01/38339. Such an assay will typically employ cells which regularly divide in culture (e.g. cancer cells). A known antimitotic compound such as nocodazole may be used as a control. In the assay, determination of the cells which proceed to mitosis is carried out using any of the known immunological methods by employing antibodies which have specificity for mitotic cells. […] Other examples are the monoclonal antibodies recognizing phospho-epitopes in the paired helical filament proteins (PHF) found in brain tissue of patients suffering from Alzheiner's disease as described in: PCT International Application published Jul. 4, 1996 under No. WO 96/20218; and, Vincent et al. (1996) “The Journal of Cell Biology”, 132:413–425. TG-3 antibody described in the latter two references may be obtained from Albert Einstein College of Medicine of Yeshiva University, Bronx, N.Y. This antibody is highly specific for mitotic cells and functions in ELISA.
Immunological methods useful for determination of mitotic cells in an assay include any method for determining antibody-antigen binding, including: immunocytochemistry (e.g. immunofluorescence), flow cytometry, immunoblotting, and ELISA, including those described in Vincent, I. et al. [supra]. High throughput testing of samples may be readily achieved by use of the ELISA or the ELICA assays described in WO 01/38339.

| Molecule | pIC50 | antimitotic activity relative to eleutherobin (fold less active) (compared with eleutherobin) |
| --- | --- | --- |
| CCO[C@]12C=C[C@](C)(O1)[C@@H](OC(=O)/C=C/c1cn(C)cn1)C[C@H]1C(CO)=CC[C@H](C(C)C)[C@H]1/C=C\2COC1OCC(O)C(O)C1OC(C)=O (stereo partly drawn) [Compound 7, 17-hydroxyeleutheside] | 7.70 | – |
| 2′3′-dihdro-eleutherobin [Compound 10] | 4.70 | – |
| 5,6,11β,12-tetrahydro eleutherobin [Compound 9] | 6.70 | – |
| CO[C@]12C=C[C@](C)(O1)[C@@H](OC(=O)/C=C/c1cn(C)cn1)C[C@H]1C(C)=CC[C@H](C(C)C)[C@H]1/C=C\2COC1OCC(O)C(O)C1OC(C)=O (stereo partly drawn) [eleutherobin, reference compound] | 7.70 | – |
| CO[C@]12CC[C@](C)(O1)[C@@H](OC(=O)CCc1cn(C)cn1)C[C@@H]1[C@H](/C=C\2COC2OCC(O)C(O)C2OC(C)=O)[C@@H](C(C)C)CC[C@@H]1C (stereo partly drawn) [Compound 8, hexahydroeleutherobin] | < 5.00 | more than five thousand fold less active than eleutherobin |
